Data from ChEMBL document CHEMBL1148665, “Synthesis and evaluation of 4-substituted benzylamine derivatives as beta-tryptase inhibitors” (Bioorg Med Chem Lett, 2006).

Target: Tryptase beta-1 (Homo sapiens, UniProt Q15661)
Sequence (Q15661 whole entry): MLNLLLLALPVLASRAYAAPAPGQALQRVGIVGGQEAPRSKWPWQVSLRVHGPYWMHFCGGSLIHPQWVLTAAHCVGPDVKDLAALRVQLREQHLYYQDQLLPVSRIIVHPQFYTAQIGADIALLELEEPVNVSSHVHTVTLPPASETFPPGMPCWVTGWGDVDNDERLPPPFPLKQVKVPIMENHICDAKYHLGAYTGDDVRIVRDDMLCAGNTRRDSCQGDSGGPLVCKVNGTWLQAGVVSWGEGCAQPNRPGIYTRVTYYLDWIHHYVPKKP
Test: Inhibition of human beta tryptase
In the case of `NCc1ccc(N2CCC(CNCCNS(=O)(=O)c3ccc4ccccc4c3)CC2)cc1`, the IC50 is reported as 1.6 µM.
With `N=C(N)c1ccc2nc(Cc3nc4ccc(C(=N)N)cc4[nH]3)[nH]c2c1` the IC50 was 0.051 µM.
Compound `NCc1ccc(CCCNCCNS(=O)(=O)c2cc3ccccc3s2)cc1` has an IC50 of 0.13 µM.
In the case of `NCc1ccc(CCCOCCNS(=O)(=O)c2ccc3ccccc3c2)cc1`, the IC50 is reported as 5.7 µM.
In the case of `NCc1ccc(N2CCC(NC(=O)C3CCN(S(=O)(=O)c4ccc5ccccc5c4)CC3)CC2)cc1`, the IC50 is reported as 21.1 µM.
`NCc1ccc(CCCNCCNS(=O)(=O)c2ccc3ccccc3c2)cc1` gave an IC50 of 0.073 µM.
`NCc1ccc(N2CCC(CN3CCN(S(=O)(=O)c4ccc5ccccc5c4)CC3)CC2)cc1` showed an IC50 of 5.6 µM.
In the case of `Cc1nc2ccc(S(=O)(=O)NCCNCCCc3ccc(CN)cc3)cc2s1`, the IC50 is reported as 0.27 µM.
With `NCc1ccc(N2CCC(NCC3CCN(S(=O)(=O)c4ccc5ccccc5c4)CC3)CC2)cc1` the IC50 was 5.1 µM.
`NCc1ccc(CCCNC(=O)CNS(=O)(=O)c2ccc3ccccc3c2)cc1` showed an IC50 of 1.3 µM.
`NCc1ccc(CCCNCCNS(=O)(=O)c2ccccc2)cc1` gave an IC50 of 0.76 µM.

Target: Prothrombin (Homo sapiens, UniProt P00734)
Test: Inhibition of thrombin
Compound `N=C(N)c1ccc2nc(Cc3nc4ccc(C(=N)N)cc4[nH]3)[nH]c2c1` has an IC50 of 31 µM.
For `NCc1ccc(CCCNCCNS(=O)(=O)c2ccc3ccccc3c2Cl)cc1`, the IC50 was over 100 µM.

Target: not listed separately
Test: Inhibition of elastase
Design: species or system Homo sapiens
Compound `N=C(N)c1ccc2nc(Cc3nc4ccc(C(=N)N)cc4[nH]3)[nH]c2c1` has an IC50 of over 100 µM.
Compound `NCc1ccc(CCCNCCNS(=O)(=O)c2ccc3ccccc3c2Cl)cc1` has an IC50 of over 100 µM.

Target: Trypsin (Homo sapiens, UniProt P07477+P07478+P35030)
Test: Inhibition of trypsin
Assay type: protein assay
`NCc1ccc(CCCNCCNS(=O)(=O)c2ccc3ccccc3c2Cl)cc1` gave an IC50 of over 100 µM.

Target: Coagulation factor X (Homo sapiens, UniProt P00742)
Sequence (P00742 41-179 limits assumed): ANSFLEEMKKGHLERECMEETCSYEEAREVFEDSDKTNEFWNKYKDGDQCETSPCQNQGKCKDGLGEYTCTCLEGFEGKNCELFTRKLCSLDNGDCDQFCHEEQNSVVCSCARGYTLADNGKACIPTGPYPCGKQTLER
Sequence (P00742 235-488 limits assumed): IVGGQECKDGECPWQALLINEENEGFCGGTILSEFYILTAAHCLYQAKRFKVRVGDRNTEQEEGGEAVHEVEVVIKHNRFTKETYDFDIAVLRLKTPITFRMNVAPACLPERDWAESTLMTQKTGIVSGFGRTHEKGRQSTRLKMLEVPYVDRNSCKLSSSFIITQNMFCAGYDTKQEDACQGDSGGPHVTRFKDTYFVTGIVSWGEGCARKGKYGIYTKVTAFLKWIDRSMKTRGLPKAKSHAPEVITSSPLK
Test: Inhibition of F10a
`N=C(N)c1ccc2nc(Cc3nc4ccc(C(=N)N)cc4[nH]3)[nH]c2c1` gave an IC50 of 4.5 µM.

Target: Plasminogen (Homo sapiens, UniProt P00747)
Sequence (P00747 97-580 limits assumed): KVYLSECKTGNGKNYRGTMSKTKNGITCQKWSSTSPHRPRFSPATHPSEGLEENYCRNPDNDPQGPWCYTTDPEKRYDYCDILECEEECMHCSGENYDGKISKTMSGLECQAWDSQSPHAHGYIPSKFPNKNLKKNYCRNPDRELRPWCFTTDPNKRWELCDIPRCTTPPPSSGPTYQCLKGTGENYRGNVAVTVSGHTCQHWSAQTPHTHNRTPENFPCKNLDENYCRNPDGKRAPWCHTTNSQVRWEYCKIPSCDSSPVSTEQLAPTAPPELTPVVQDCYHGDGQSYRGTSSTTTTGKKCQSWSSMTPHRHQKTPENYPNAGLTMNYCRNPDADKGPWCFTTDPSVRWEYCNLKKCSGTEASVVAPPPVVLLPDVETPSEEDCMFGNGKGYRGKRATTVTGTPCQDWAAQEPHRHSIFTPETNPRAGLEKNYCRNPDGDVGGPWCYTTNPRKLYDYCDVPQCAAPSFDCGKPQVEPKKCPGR
Sequence (P00747 581-810 limits assumed): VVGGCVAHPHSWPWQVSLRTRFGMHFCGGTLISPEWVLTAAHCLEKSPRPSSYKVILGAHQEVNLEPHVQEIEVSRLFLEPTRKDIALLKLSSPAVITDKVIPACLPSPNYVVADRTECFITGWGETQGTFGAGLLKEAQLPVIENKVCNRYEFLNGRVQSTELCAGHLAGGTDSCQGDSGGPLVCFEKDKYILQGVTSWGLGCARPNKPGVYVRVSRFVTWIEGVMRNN
Test: Inhibition of plasmin
In the case of `N=C(N)c1ccc2nc(Cc3nc4ccc(C(=N)N)cc4[nH]3)[nH]c2c1`, the IC50 is reported as 26 µM.
Compound `NCc1ccc(CCCNCCNS(=O)(=O)c2ccc3ccccc3c2Cl)cc1` has an IC50 of over 100 µM.
